# Assay results as given in ChEMBL document CHEMBL1134505, “Secretase targets for Alzheimer's disease: identification and therapeutic potential” (J Med Chem, 2001).
# Numbered stars: 1 amine (or outer) side, 2 acyl side, 3 side chain; on linkers, the order of the positions; unused ones are H or OH. Square brackets hold non-standard residues; d marks the D form. Peptide text beside a SMILES is read from it. * marks the point of attachment. X1 = CC(C)C[C@H](N[*:1])C(O)C[C@@H](C)C(=O)[*:2]; X2 = C[C@H](N[*:1])C(=O)C(F)(F)C(=O)[*:2]; Sta = CC(C)C[C@H](N)[C@@H](O)CC(=O)O; Nva = CCC[C@H](N)C(=O)O; Cbz = O=C(OCc1ccccc1)*; Boc = CC(C)(C)OC(=O)*
# What was measured:
# Beta-secretase 1 = Beta-secretase 1 (Homo sapiens, UniProt P56817); assay: Inhibition of human recombinant beta-secretase
# Beta-secretase (BACE) [1] = target: T1, Beta-secretase (BACE) (Homo sapiens, UniProt Q9Y5Z0+P56817); assay: Inhibition of beta-secretase activity; type: protein assay
# Beta-secretase (BACE) [2] = target: T1, Beta-secretase (BACE); assay: In vitro inhibition of beta-secretase was evaluated; type: protein assay
# [3] = target: Gamma-secretase subunit PEN-2 (Homo sapiens, UniProt Q9NZ42); assay: Inhibition of Amyloid-beta production in APP-transfected cells at level of gamma secretase; type: functional, cell-based
# Gamma-secretase subunit PEN-2, sequence (Q9NZ42 whole entry): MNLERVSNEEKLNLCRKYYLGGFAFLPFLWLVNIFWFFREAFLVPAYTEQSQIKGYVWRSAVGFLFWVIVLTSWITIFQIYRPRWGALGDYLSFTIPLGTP
# Beta-secretase 1, sequence (P56817 whole entry): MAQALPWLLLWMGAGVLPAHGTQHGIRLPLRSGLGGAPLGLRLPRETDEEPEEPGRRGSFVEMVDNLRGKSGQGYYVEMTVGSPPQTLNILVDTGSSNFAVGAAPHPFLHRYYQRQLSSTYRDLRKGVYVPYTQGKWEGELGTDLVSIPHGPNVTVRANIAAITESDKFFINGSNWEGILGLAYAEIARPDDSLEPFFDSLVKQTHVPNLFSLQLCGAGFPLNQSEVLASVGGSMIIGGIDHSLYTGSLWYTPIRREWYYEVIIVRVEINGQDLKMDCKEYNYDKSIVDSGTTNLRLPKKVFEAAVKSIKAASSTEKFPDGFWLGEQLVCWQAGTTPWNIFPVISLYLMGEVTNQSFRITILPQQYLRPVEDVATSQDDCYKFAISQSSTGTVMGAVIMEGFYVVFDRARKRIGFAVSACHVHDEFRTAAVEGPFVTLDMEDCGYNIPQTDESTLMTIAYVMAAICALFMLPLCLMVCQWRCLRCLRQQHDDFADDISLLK
IC50 [3] [µM],SMILES,further results
–,CC(C)C[C@H](NC(=O)[C@H](CC(N)=O)NC(=O)[C@@H](NC(=O)[C@@H](N)CC(=O)O)C(C)C)C(O)C[C@@H](C)C(=O)N[C@@H](C)C(=O)N[C@@H](CCC(=O)O)C(=O)N[C@@H](Cc1ccccc1)C(=O)O (stereo partly drawn) (H-DVN[X1]AEF-OH),Ki (Beta-secretase 1): 10 nM
–,CC(C)C[C@H](NC(=O)[C@H](Cc1ccccc1)C[C@@H](O)[C@H](Cc1ccccc1)NC(=O)OC(C)(C)C)C(=O)N[C@@H](Cc1ccccc1)C(N)=O,IC50 (Beta-secretase (BACE) [1]): 0.3 µM
–,CC(C)C[C@H](NC(=O)[C@H](CC(N)=O)NC(=O)[C@@H](N)C(C)C)C(O)C[C@@H](C)C(=O)N[C@@H](C)C(=O)N[C@@H](CCC(=O)O)C(=O)N[C@@H](Cc1ccccc1)C(=O)O (stereo partly drawn) (H-VN[X1]AEF-OH),Ki (Beta-secretase 1): 68 nM
–,CC[C@H](C)[C@H](NC(=O)[C@H](CCC(=O)O)NC(=O)[C@H](CCC(=O)O)NC(=O)[C@@H](NC(=O)[C@@H](N)CCCCN)[C@@H](C)O)C(=O)N[C@@H](CO)C(=O)N[C@@H](CCC(=O)O)C(=O)N[C@H](C(=O)N[C@@H](CC(N)=O)C(=O)N[C@@H](CC(C)C)[C@@H](O)CC(=O)N[C@H](C(=O)N[C@@H](C)C(=O)N[C@@H](CCC(=O)O)C(=O)N[C@@H](Cc1ccccc1)C(=O)O)C(C)C)C(C)C (H-KTEEISEVN[Sta]VAEF-OH),IC50 (Beta-secretase (BACE) [2]): 30 nM
200,CCC[C@@H](C=O)NC(=O)[C@H](CC(C)C)NC(=O)[C@H](CC(C)C)NC(C)=O (Ac-Leu-Leu-[Nva]-aldehyde),–
200,CC(C)C[C@@H](C=O)NC(=O)[C@H](CC(C)C)NC(=O)[C@H](CC(C)C)NC(=O)OCc1ccccc1 [MG-132] (Cbz-Leu-Leu-Leu-aldehyde),–
13,CC[C@H](C)[C@H](NC(=O)[C@@H](NC(=O)OC(C)(C)C)C(C)C)C(=O)N[C@@H](C)C(=O)C(F)(F)C(=O)N[C@H](C(=O)N[C@H](C(=O)OC)[C@@H](C)CC)C(C)C (Boc-VI[X2]VI-OMe),–
200,CCC[C@@H](C=O)NC(=O)[C@H](CC(C)C)NC(=O)OCc1ccccc1 (Cbz-Leu-[Nva]-aldehyde),–
